The record followed here is ChEMBL document CHEMBL3044569, “Mini-plot field experiments using seed dressings to control slug damage to oilseed rape” (Crop Prot, 2006).

Molecules are shown by their SMILES. The source made the active and inactive calls. The calls are words filed in the database; no cut-off is given here.

The subject of data set [1] is Deroceras reticulatum. The data set can be described thus: Pesticidal activity against Deroceras reticulatum infected oilseed rape assessed as protection against slug damage studied in autumn applied during seed dressing at 58 g a.i/kg seed after 1 to 4 weeks relative to untreated control. The class given is functional, organism-based.
For data set [2], the system named is Deroceras reticulatum. Briefly: Pesticidal activity against Deroceras reticulatum infected oilseed rape assessed as protection against slug damage studied in autumn applied as pellet at 8 kg product/ha after 1 to 4 weeks relative to untreated control. It counts as functional, organism-based.
Data set [3] deals with Brassica napus. Briefly: Phytotoxicity in Brassica napus (oilseed rape) at 58 g a.i/kg applied during seed dressing after 4 weeks studied in autumn (reference value: 89 +/- 2.9 %). As to conditions: in vivo, other, 672 h. It counts as organism-based.
For data set [4], the system named is Deroceras reticulatum. Briefly: Pesticidal activity against Deroceras reticulatum infected oilseed rape assessed as protection against slug damage studied in spring applied as pellet at 8 kg product/ha after 1 to 4 weeks relative to untreated control. The class given is functional, organism-based.
The subject of data set [5] is Deroceras reticulatum. The data set can be described thus: Pesticidal activity against Deroceras reticulatum infected oilseed rape assessed as protection against slug damage studied in spring applied during seed dressing at 60 g a.i/kg seed after 2 to 4 weeks relative to untreated control. The class given is functional, organism-based.
For data set [6], the system named is Brassica napus. The data set can be described thus: Phytotoxicity in Brassica napus (oilseed rape) at 60 g a.i/kg applied during seed dressing after 4 weeks studied in spring (reference value: 91 +/- 2.8 %). The class given is organism-based. The following applies: in vivo, other, 672 h.
Data set [7] relates to Deroceras reticulatum. Briefly: Pesticidal activity against Deroceras reticulatum infected oilseed rape assessed as protection against slug damage studied in autumn applied during seed dressing at 18 g a.i/kg seed after 1 to 4 weeks relative to untreated control. The class given is functional, organism-based.
Data set [8] deals with Deroceras reticulatum. Briefly: Pesticidal activity against Deroceras reticulatum infected oilseed rape assessed as protection against slug damage studied in spring applied during seed dressing at 20 g a.i/kg seed after 2 to 4 weeks relative to untreated control. It counts as functional, organism-based.
Data set [9] concerns Brassica napus. Briefly: Phytotoxicity in Brassica napus (oilseed rape) at 20 g a.i/kg applied during seed dressing after 4 weeks studied in spring (reference value: 91 +/- 2.8 %). As to conditions: in vivo, other, 672 h. The class given is organism-based.
The subject of data set [10] is Brassica napus. Briefly: Phytotoxicity in Brassica napus (oilseed rape) at 18 g a.i/kg applied during seed dressing after 4 weeks studied in autumn (reference value: 89 +/- 2.9 %). It counts as organism-based. As to conditions: in vivo, other, 672 h.

As for `CC1OC(C)OC(C)OC(C)O1` (stereo not given) [METALDEHYDE], the result in the data set on Deroceras reticulatum [1], in the data set on Deroceras reticulatum [2], in the data set on Deroceras reticulatum [4] and in the data set on Deroceras reticulatum [5] was Active. The figures for the Activity in the data set with Brassica napus [3] and with Brassica napus [6] were 77% and 90.3%, respectively.

Regarding `CNC(=O)Oc1cc(C)c(SC)c(C)c1` [METHIOCARB], the result with Deroceras reticulatum [7] and with Deroceras reticulatum [8] was Active. In addition, the Activity in the data set with Brassica napus [9] amounted to 87.5%; in the data set with Brassica napus [10] it was 86.5%.
